Where a SMILES comes first, the peptide text is derived from it.
Key:
[1] = system: Pseudomonas aeruginosa; assay: Pseudomonas aeruginosa growth inhibition assay; assay type: cell-based; settings: peptide 10 micrograms per ml, visual read, scored positive/negative
[2] = Cytotoxicity in the HBV assay (dye uptake cell viability); assay type: cell-based; settings: human, HepG2-2.2.15 cells (stable line containing HBV ayw genome), peptide 10 micrograms per ml
[3] = system: Streptococcus pneumoniae; assay: Streptococcus pneumoniae growth inhibition assay; assay type: cell-based; settings: peptide 10 micrograms per ml, visual read, scored positive/negative
Source text: Results from Streptococcus pneumoniae assay:

[4] = Cytotoxicity in the HIV-1 assay (MTS cell viability); settings: human, CEM-SS cells (uninfected, cells plus peptide only)
[5] = Cytotoxicity in the HCMV assay (CellTiter 96 cell viability); settings: human, MRC-5 cells (embryonal lung fibroblasts)
[6] = system: Methicillin Resistant Staphylococcus Aureus (MRSA); assay: Methicillin resistant Staphylococcus aureus (MRSA) growth inhibition assay; assay type: cell-based; settings: peptide 10 micrograms per ml, visual read, scored positive/negative (complete inhibition of macroscopic growth)
[7] = system: MRC-5 cells (human embryonal lung fibroblasts); settings: 6 days
[8] = system: HCMV strain AD169; assay: HCMV plaque reduction assay in MRC-5 cells; settings: HCMV AD169 in MRC-5 cells; peptide 10 micrograms per ml; 7-10 days
[9] = system: HepG2-2.2.15 cells; assay: Cytotoxicity in the HBV assay (dye uptake cell viability); assay type: cell-based; settings: peptide 10 micrograms per ml
[10] = system: HIV-1; assay: HIV-1 antiviral assay (CPE reduction, MTS readout) in CEM-SS cells; assay type: cell-based; settings: peptide 10 micrograms per ml, strain HIV-1111B, 6 days post-infection
[11] = system: CEM-SS cells; assay: Cytotoxicity in the HIV-1 assay (MTS cell viability); settings: CEM-SS cells, HIV-1 assay; peptide 10 micrograms per ml; MTS

## N=C(N)NCCC[C@H](NC(=O)CN)C(=O)NCC(=O)N[C@@H](CC(=O)O)C(=O)N[C@@H](CC(N)=O)C(=O)N1CCC[C@H]1C(=O)O [Gly-Arg-Gly-Asp-Asn-Pro, Gly-Arg-Gly-Asp-Asn-Pro-OH] (H-GRGDNP-OH)
[1]
  % inhibition: 0.0%
[2]
  viability at 144 h, 10 micrograms per ml: 95.2%
[3]
  % inhibition: 100.0%
[4]
  viability at 10 micrograms per ml: 100%
[5]
  viability at 144 h: 100%
[6]
  % inhibition: 0.0%

## Nc1nc(O)c2ncn(COC(CO)CO)c2n1 [Ganciclovir]
[7]
  % Cell viability: 100%
[8]
  % plaque reduction: 100%

## Nc1ccn([C@@H]2CS[C@H](CO)O2)c(=O)n1 [3TC, Lamivudine]
[9]
  % Cell viability: 95.8%

## CC(C)(C)NC(=O)[C@@H]1CN(Cc2cccnc2)CCN1C[C@@H](O)C[C@@H](Cc1ccccc1)C(=O)N[C@H]1c2ccccc2C[C@H]1O [Indinavir, indinavir]
[10]
  % CPE reduction in HIV-1 infected CEM-SS cells: 100%

## Cc1cn([C@H]2C[C@H](N=[N+]=[N-])[C@@H](CO)O2)c(=O)[nH]c1=O [AZT]
[10]
  % CPE reduction in HIV-1 infected CEM-SS cells: 99%
[11]
  % Cell viability: 97%

Reference: patent US20100184704A1, “USE OF THE PEPTIDE GLY-ARG-GLY-ASP-ASN-PRO AS A THERAPEUTIC AGENT” (priority 2007, published 2010)
